Experimental data from PubChem BioAssay (NCI).
Where “and” joins values, the source holds several entries; their conditions need not be identical. Equal entries are not always repeated.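 The compound was tested at five concentrations on cells cultured in 96-well plates, with a 48-hour exposure period. GI50 is the concentration that inhibits growth by half. TGI marks complete inhibition of growth.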

Key:
Assay in all cases: NCI tumour cell line growth inhibition, 48 h
P388 leukemia = test system: P388 leukemia
DLD-1 colon = test system: DLD-1 colon
HOP-18 NSCLC = test system: HOP-18 NSCLC
SN12K1 renal = test system: SN12K1 renal
P388/ADR leukemia = test system: P388/ADR leukemia
SNB-78 CNS = test system: SNB-78 CNS
M19-MEL melanoma = test system: M19-MEL melanoma
KM20L2 colon = test system: KM20L2 colon
XF 498 CNS = test system: XF 498 CNS
RXF-631 renal = test system: RXF-631 renal
LXFL 529 NSCLC = test system: LXFL 529 NSCLC

Row | Compound | TGI (P388 leukemia) | TGI (DLD-1 colon) | TGI (HOP-18 NSCLC) | TGI (SN12K1 renal) | TGI (P388/ADR leukemia) | TGI (SNB-78 CNS) | TGI (M19-MEL melanoma) | TGI (KM20L2 colon) | TGI (XF 498 CNS) | GI50 (DLD-1 colon) | GI50 (HOP-18 NSCLC) | GI50 (SNB-78 CNS) | TGI (RXF-631 renal) | TGI (LXFL 529 NSCLC) | GI50 (M19-MEL melanoma)
1 | CSCC[C@@H](NC(=O)[C@H](CC(C)C)NC(=O)C(Cc1cnc[nH]1)NC(=O)CNC(=O)[C@@H](NC(=O)[C@H](C)NC(=O)[C@H](Cc1c[nH]c2ccccc12)NC(=O)[C@H](CCC(N)=O)NC(=O)[C@@H](N)CC(N)=O)C(C)C)C(N)=O (stereo partly drawn) | > 100 µM | > 100 µM | > 100 µM | > 100 µM | > 100 µM | > 100 µM | > 100 µM | > 100 µM | > 100 µM |  |  |  |  |  | 
2 | Cc1c2ccnc(C(N)=O)c2c(C)c2c1[nH]c1ccccc12 | 14 µM | 45 µM and 23.6 µM | 46.5 µM and 47.3 µM | 19.1 µM | 35.8 µM | 48.3 µM and > 100 µM | 25.2 µM and 17.4 µM | 40.5 µM | 19.8 µM and 26.4 µM | 3.57 µM | 15 µM | 6.28 µM | 28.8 µM | 26.9 µM | 4.7 µM
3 | Cc1c(N2CCOCC2)nc2ccc(Cl)cc2c1-c1ccccc1 |  |  |  |  |  | > 100 µM | > 100 µM |  |  |  |  |  |  | > 100 µM | 
4 | COc1cc2ccc3c4cc(OC)c(OC)cc4c[n+](C)c3c2cc1O |  | > 100 µM | > 100 µM |  |  | > 100 µM | > 100 µM | > 100 µM | > 88.1 µM |  |  |  |  | > 100 µM | 
5 | COC(=O)CC(=O)OSc1ccccc1 |  | 48 µM |  |  |  |  |  | 42.2 µM |  |  |  |  | 25 µM |  | 
6 | CC(=O)NNc1nc(C)c(C(=O)NNC(=O)C(=O)Nc2ccc([N+](=O)[O-])cc2[N+](=O)[O-])s1 |  | > 100 µM |  |  |  | > 100 µM |  | > 100 µM | > 100 µM |  |  |  | > 100 µM | > 100 µM | 
